Results taken from patent US8912121B2, “Herbicidal compositions comprising 4-amino-3-chloro-5-fluoro-6-(4-chloro-2-fluoro-3-methoxyphenyl)pyridine-2-carboxylic acid or a derivative thereof and certain PS II inhibitors” (Dow Agrosciences LLC, priority 2012, dated 2014).
Several values for one entry are separate records, joined by “and”; a condition that tells them apart may be missing. Equal entries are not always repeated. Where two headings read alike, the source gives them in different places.

Assays:
Assay in all cases: Postemergence foliar-applied mixtures, direct seeded rice, greenhouse
[1] = test system: ECHCG (Echinochloa crusgalli, barnyardgrass); format: in vivo, Echinochloa crusgalli (L.) Beauv.
Description: Seeds or nutlets of the desired test plant species were planted in a soil matrix prepared by mixing a loam or sandy loam soil (e.g., 28.6 percent silt, 18.8 percent clay, and 52.6 percent sand, with a pH of about 5.8 and an organic matter content of about 1.8 percent) and calcareous grit in an 80 to 20 ratio. The soil matrix was contained in plastic pots with a volume of 1 quart and a surface area of 83.6 square centimeters (cm^2). […] The plants were grown for 8-22 days in a greenhouse with an approximate 14 h photoperiod which was maintained at about 29° C. during the day and 26° C. during the night. Nutrients (Peters Excel® 15-5-15 5-Ca 2-Mg and iron chelate) were applied in the irrigation solution as needed and water was added on a regular basis. Supplemental lighting was provided with overhead metal halide 1000-Watt lamps as necessary. The plants were employed for testing when they reached the first through fourth true leaf stage.
(§1) Treatments consisted of the acid or esters of 4-amino-3-chloro-5-fluoro-6-(4-chloro-2-fluoro-3-methoxy-phenyl) pyridine-2-carboxylic acid (Compound A), each formulated as an SC (suspension concentrate), and various herbicidal components alone and in combination. Forms of compound A were applied on an acid equivalent basis.
(§2) Other herbicidal components were applied on an active ingredient basis and included Photosystem II (PSII)-inhibiting herbicides propanil formulated as Stam® M4 EC, bentazon-sodium formulated as Basagran®, atrazine formulated as Atrazine 90 WDG, bromoxynil octanoate ester formulated as Buctril®, simetryne (technical grade material), simazine formulated as Princep® Caliber 90, ioxynil (technical grade material), cyanazine (technical grade material), and hexazinone (technical grade material).
(§3) For treatments comprised of formulated compounds, measured amounts of compounds were placed individually in 25 mL glass vials and diluted in a volume of 1.25% (v/v) Agri-Dex® crop oil concentrated to obtain 12× stock solutions. […] Application solutions were prepared by adding an appropriate amount of each stock solution (e.g., 1 mL) and diluted to the appropriate final concentrations with the addition of 10 mL of an aqueous mixture of 1.25% (v/v) crop oil concentrate so that the final spray solutions contained 1.25+/−0.05% (v/v) crop oil concentrate.
(§4) For treatments comprised of technical compounds, weighed amounts can be placed individually in 25 mL glass vials and dissolved in a volume of 97:3 v/v acetone/DMSO to obtain 12× stock solutions. […] Application solutions can be prepared by adding an appropriate amount of each stock solution (e.g., 1 mL) and diluted to the appropriate final concentrations with the addition of 10 mL of an aqueous mixture of 1.5% (v/v) crop oil concentrate so that the final spray solutions contain 1.25% (v/v) crop oil concentrate. When technical materials are used, the concentrated stock solutions can be added to the spray solutions so that the final acetone and DMSO concentrations of the application solutions are 16.2% and 0.5%, respectively.
For treatments comprised of formulated and technical compounds, weighed amounts of the technical materials were placed individually in 25 mL glass vials and dissolved in a volume of 97:3 v/v acetone/DMSO to obtain 12× stock solutions, and measured amounts of the formulated compounds were placed individually in 25 mL glass vials and diluted in a volume of 1.5% (v/v) crop oil concentrate or water to obtain 12× stock solutions. […] Application solutions were prepared by adding an appropriate amount of each stock solution (eg, 1 mL) and diluted to the appropriate final concentrations with the addition of an appropriate amount of an aqueous mixture of 1.5% (v/v) crop oil concentrate so that the final spray solutions contained 1.25% (v/v) crop oil concentrate.

[2] = test system: ECHCO (Echinochloa colona, junglerice); format: in vivo, Echinochloa colona (L.) Link
Description: (§5) Seeds or nutlets of the desired test plant species were planted in a soil matrix prepared by mixing a loam or sandy loam soil (e.g., 28.6 percent silt, 18.8 percent clay, and 52.6 percent sand, with a pH of about 5.8 and an organic matter content of about 1.8 percent) and calcareous grit in an 80 to 20 ratio. The soil matrix was contained in plastic pots with a volume of 1 quart and a surface area of 83.6 square centimeters (cm^2). When required to ensure good germination and healthy plants, a fungicide treatment and/or other chemical or physical treatment was applied. The plants were grown for 8-22 days in a greenhouse with an approximate 14 h photoperiod which was maintained at about 29° C. during the day and 26° C. during the night. Nutrients (Peters Excel® 15-5-15 5-Ca 2-Mg and iron chelate) were applied in the irrigation solution as needed and water was added on a regular basis. Supplemental lighting was provided with overhead metal halide 1000-Watt lamps as necessary. The plants were employed for testing when they reached the first through fourth true leaf stage.
as §1, §2
(§6) Treatment requirements were calculated based upon the rates being tested, the concentration of active ingredient or acid equivalent in the formulation, and a 12 mL application volume at a rate of 187 L/ha.
as §3, §4
(§7) For treatments comprised of formulated and technical compounds, weighed amounts of the technical materials were placed individually in 25 mL glass vials and dissolved in a volume of 97:3 v/v acetone/DMSO to obtain 12× stock solutions, and measured amounts of the formulated compounds were placed individually in 25 mL glass vials and diluted in a volume of 1.5% (v/v) crop oil concentrate or water to obtain 12× stock solutions. […]

[3] = test system: CYPIR (Cyperus iria, rice flatsedge); format: in vivo, Cyperus iria L.
Description: as §5, §1, §2, §6, §3, §4, §7

[4] = test system: IPOHE (Ipomoea hederacea, ivyleaf morningglory); format: in vivo, Ipomoea hederacea Jacq.; conditions: post-emergence
In short: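 Greenhouse plants in loam/grit soil (about 29/26°C, 14 h photoperiod) sprayed post-emergence at first to fourth true leaf stage at 187 L/ha. Compound A dosed as acid equivalent, partner PSII herbicides as active ingredient, alone and in mixtures, in spray solutions containing 1.25% crop oil concentrate.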

## CCNc1nc(Cl)nc(NC(C)C)n1 [Atrazine, 6-chloro-N-ethyl-N′-(1-methylethyl)-1,3,5-triazine-2,4-diamine, reference compound]
[1]; 280 g ai/ha, 22 DAA
  Visual Weed Control (%) Obs: 0%
[1]; 560 g ai/ha, 22 DAA
  Visual Weed Control (%) Obs: 20%
[1]; 1120 g ai/ha, 22 DAA
  Visual Weed Control (%) Obs: 70%
[2]; 280 g ai/ha, 22 DAA
  Visual Weed Control (%) Obs: 10%
[2]; 560 g ai/ha, 22 DAA
  Visual Weed Control (%) Obs: 10%
[2]; 1120 g ai/ha, 22 DAA
  Visual Weed Control (%) Obs: 60%
[3]; 280 g ai/ha, 22 DAA
  Visual Weed Control (%) Obs: 0%
[3]; 560 g ai/ha, 22 DAA
  Visual Weed Control (%) Obs: 100%
[3]; 1120 g ai/ha, 22 DAA
  Visual Weed Control (%) Obs: 80%

## COc1c(Cl)ccc(-c2nc(C(=O)OCc3ccccc3)c(Cl)c(N)c2F)c1F [Compound A Benzyl Ester, benzyl ester of 4-amino-3-chloro-5-fluoro-6-(4-chloro-2-fluoro-3-methoxy-phenyl)pyridine-2-carboxylic acid]
[1]; 4.38 g ae/ha, 21 DAA
  Visual Weed Control (%) Obs: 48%
[1]; 8 g ae/ha, 20 DAA
  Visual Weed Control (%) Obs: 70%
[1]; 8 g ae/ha, 21 DAA
  Visual Weed Control (%) Obs: 45%
[1]; 8 g ae/ha, 22 DAA
  Visual Weed Control (%) Obs: 35%
[1]; 8.75 g ae/ha, 21 DAA
  Visual Weed Control (%) Obs: 55%
[1]; 16 g ae/ha, 20 DAA
  Visual Weed Control (%) Obs: 90%
[1]; 16 g ae/ha, 21 DAA
  Visual Weed Control (%) Obs: 85%
[1]; 16 g ae/ha, 22 DAA
  Visual Weed Control (%) Obs: 65%
[1]; 17.5 g ae/ha, 21 DAA
  Visual Weed Control (%) Obs: 85%
[1]; 32 g ae/ha, 20 DAA
  Visual Weed Control (%) Obs: 90%
[1]; 32 g ae/ha, 21 DAA
  Visual Weed Control (%) Obs: 90%
[1]; 32 g ae/ha, 22 DAA
  Visual Weed Control (%) Obs: 80%
[2]; 4.38 g ae/ha, 21 DAA
  Visual Weed Control (%) Obs: 60%
[2]; 8 g ae/ha, 20 DAA
  Visual Weed Control (%) Obs: 65%
[2]; 8 g ae/ha, 21 DAA
  Visual Weed Control (%) Obs: 75% and 50%
[2]; 8.75 g ae/ha, 21 DAA
  Visual Weed Control (%) Obs: 68%
[2]; 16 g ae/ha, 20 DAA
  Visual Weed Control (%) Obs: 85%
[2]; 16 g ae/ha, 21 DAA
  Visual Weed Control (%) Obs: 85% and 65%
[2]; 17.5 g ae/ha, 21 DAA
  Visual Weed Control (%) Obs: 83%
[2]; 32 g ae/ha, 20 DAA
  Visual Weed Control (%) Obs: 95%
[2]; 32 g ae/ha, 21 DAA
  Visual Weed Control (%) Obs: 95% and 85%
[4]; 480 h, read-out: Visual Weed Control (%) Obs, 32 g ae/ha, 20 DAA
  pest or weed control at 32 g/ha: 55%
[4]; 504 h, read-out: Visual Weed Control (%) Obs, 4.38 g ae/ha, 21 DAA
  pest or weed control at 4.38 g/ha: 0%
[4]; 504 h, read-out: Visual Weed Control (%) Obs, 8 g ae/ha, 21 DAA
  pest or weed control at 8 g/ha: 10%
[4]; 504 h, read-out: Visual Weed Control (%) Obs, 8.75 g ae/ha, 21 DAA
  pest or weed control at 8.75 g/ha: 15%
[4]; 504 h, read-out: Visual Weed Control (%) Obs, 16 g ae/ha, 21 DAA
  pest or weed control at 16 g/ha: 25%
[4]; 504 h, read-out: Visual Weed Control (%) Obs, 17.5 g ae/ha, 21 DAA
  pest or weed control at 17.5 g/ha: 38%
[4]; 504 h, read-out: Visual Weed Control (%) Obs, 17.5 g ae/ha, 21 DAA (second set, r27-r31)
  pest or weed control at 17.5 g/ha: 38%
[4]; 504 h, read-out: Visual Weed Control (%) Obs, 32 g ae/ha, 21 DAA
  pest or weed control at 32 g/ha: 60%
[4]; 504 h, read-out: Visual Weed Control (%) Obs, 35 g ae/ha, 21 DAA
  pest or weed control at 35 g/ha: 55%
[3]; 8 g ae/ha, 20 DAA
  Visual Weed Control (%) Obs: 70%
[3]; 8 g ae/ha, 22 DAA
  Visual Weed Control (%) Obs: 10%
[3]; 16 g ae/ha, 20 DAA
  Visual Weed Control (%) Obs: 90%
[3]; 16 g ae/ha, 22 DAA
  Visual Weed Control (%) Obs: 60%
[3]; 32 g ae/ha, 20 DAA
  Visual Weed Control (%) Obs: 90%

## COc1c(Cl)ccc(-c2nc(C(=O)O)c(Cl)c(N)c2F)c1F [Compound A Acid, 4-amino-3-chloro-6-(4-chloro-2-fluoro-3-methoxyphenyl)-5-fluoropyridine-2-carboxylic acid]
[1]; 4.38 g ae/ha, 21 DAA
  Visual Weed Control (%) Obs: 33%
[1]; 4.38 g ae/ha, 22 DAA
  Visual Weed Control (%) Obs: 20%
[1]; 8.75 g ae/ha, 21 DAA
  Visual Weed Control (%) Obs: 55%
[2]; 4.38 g ae/ha, 21 DAA
  Visual Weed Control (%) Obs: 43%
[2]; 4.38 g ae/ha, 22 DAA
  Visual Weed Control (%) Obs: 20%
[2]; 8.75 g ae/ha, 21 DAA
  Visual Weed Control (%) Obs: 63%
[4]; 480 h, 19.4 g ae/ha, 20 DAA, read-out: Visual Weed Control (%) Obs
  pest or weed control at 19.4 g/ha: 15%
[4]; 480 h, 21.2 g ae/ha, 20 DAA, read-out: Visual Weed Control (%) Obs
  pest or weed control at 21.2 g/ha: 35%
[4]; 480 h, 42.4 g ae/ha, 20 DAA, read-out: Visual Weed Control (%) Obs
  pest or weed control at 42.4 g/ha: 55%
[4]; 504 h, 4.38 g ae/ha, 21 DAA, read-out: Visual Weed Control (%) Obs
  pest or weed control at 4.38 g/ha: 15%
[4]; 504 h, 8.75 g ae/ha, 21 DAA, read-out: Visual Weed Control (%) Obs
  pest or weed control at 8.75 g/ha: 35%
[3]; 4.38 g ae/ha, 22 DAA
  Visual Weed Control (%) Obs: 15%

## CCNc1nc(Cl)nc(NCC)n1 [Simazine, 6-chloro-N,N′-diethyl-1,3,5-triazine-2,4-diamine, reference compound]
[1]; 560 g ai/ha, 20 DAA
  Visual Weed Control (%) Obs: 0%
[1]; 1120 g ai/ha, 20 DAA
  Visual Weed Control (%) Obs: 0%
[1]; 2240 g ai/ha, 20 DAA
  Visual Weed Control (%) Obs: 0%
[2]; 560 g ai/ha, 20 DAA
  Visual Weed Control (%) Obs: 0%
[2]; 1120 g ai/ha, 20 DAA
  Visual Weed Control (%) Obs: 0%
[2]; 2240 g ai/ha, 20 DAA
  Visual Weed Control (%) Obs: 0%
[3]; 560 g ai/ha, 20 DAA
  Visual Weed Control (%) Obs: 0%
[3]; 1120 g ai/ha, 20 DAA
  Visual Weed Control (%) Obs: 0%
[3]; 2240 g ai/ha, 20 DAA
  Visual Weed Control (%) Obs: 30%

## CCC(=O)Nc1ccc(Cl)c(Cl)c1 [Propanil, N-(3,4-dichlorophenyl)propanamide, reference compound]
[1]; 420 g ai/ha, 21 DAA
  Visual Weed Control (%) Obs: 10%
[1]; 840 g ai/ha, 21 DAA
  Visual Weed Control (%) Obs: 10%
[1]; 1680 g ai/ha, 21 DAA
  Visual Weed Control (%) Obs: 40%
[2]; 420 g ai/ha, 21 DAA
  Visual Weed Control (%) Obs: 10%
[2]; 840 g ai/ha, 21 DAA
  Visual Weed Control (%) Obs: 25%
[2]; 1680 g ai/ha, 21 DAA
  Visual Weed Control (%) Obs: 25%
[4]; 480 h, 3360 g ai/ha, 20 DAA, read-out: Visual Weed Control (%) Obs
  pest or weed control at 3360 g/ha: 40%
[4]; 504 h, 420 g ai/ha, 21 DAA, read-out: Visual Weed Control (%) Obs
  pest or weed control at 420 g/ha: 0%
[4]; 504 h, 840 g ai/ha, 21 DAA, read-out: Visual Weed Control (%) Obs
  pest or weed control at 840 g/ha: 0%
[4]; 504 h, 1680 g ai/ha, 21 DAA, read-out: Visual Weed Control (%) Obs
  pest or weed control at 1680 g/ha: 0%
